Assay results: US11898167B2, “Reversible stencils for fabricating micro-tissues” (The Regents of the University of California, priority 2014, dated 2024)
“Also recorded” adds a separate entry of the source.

Experiments:
Format in all cases: cell-based, human
[1] = system: micro-muscle heart tissues; experiment: Calcium dose response of twitch force of micro-muscles; conditions: increasing extracellular calcium concentrations (2 mM, 6 mM shown)
Source text: Representative micro-muscle heart tissues were generated by seeding small numbers of cardiomyocytes into stencil microwells as described herein. Separate micro-muscles were then contacted with different extracellular calcium concentrations.

[2] = system: wild type iPS-CM micro-tissues; experiment: Beating (beat rate, contraction velocity) of wild type iPS-CM three-dimensional micro-tissues in stencil microwells, drug response
Protocol: (§1) The beating rate, maximum contraction velocity, and spatial coordination of beating within micro-tissues was assessed visually, and quantified using image processing software was used, such as the custom block-matching optical flow software, described in a publication that is currently under review (Huebsch 2014). Micro-tissue response to drugs, including verapamil and isoproterenol, was tested using an automated inverted microscope (Zeiss).
Beginning five days after seeding cells into micro-tissue molds, the beating parameters of spontaneously beating (non-paced) iPS-CM micro-tissues were analyzed. […] Despite this difference, micro-tissues maintained in RPMI media with B27 supplement all beat at nearly the same rate (FIG. 4B). Micro-tissues incubated in StemPro 34 media beat with a slightly more variable rate from one tissue to the next, but at a basal rate closer to the physiological levels of 1 Hz for human cells (data not shown).

[3] = system: MYBPC3−/− micro-tissues; experiment: Beat-rate response of MYBPC3 null iPS-CM micro-tissues
Protocol: as §1
To model hypertrophic cardiomyopathy, MYPBC3 was knocked out of wild type iPS.

[4] = system: iPS-CM micro-tissues harboring the GCaMP6f calcium indicator; experiment: Calcium flux (GCaMP6f reporter) in iPS-CM micro-tissues; parameters: dose or concentration left out as unconfirmed; conditions: 1 week and 2 week micro-tissues, paced at 1 Hz; isoproterenol
Protocol: Induced pluripotent stem cells genetically modified to express the GCaMP6f calcium indicator gene product, and then differentiated into cardiomyocytes (iPS-CM). Micro-tissues were made with iPS-CM harboring the GCaMP6f calcium indicator, to allow continuous recording of calcium flux as illustrated in FIG. 8.
FIG. 8D-8E illustrate the functional maturation of iPS-CM-derived micro-tissues (μHT, micro-heart tissues). After 1 or 2 weeks of incubation in the stencil microwells, the micro-tissues were paced at 1 Hz for analysis of inotropy.

[5] = system: heterozygous MYPBC3+/− iPS micro-tissues; experiment: Beat-rate response of heterozygous MYBPC3 iPS-CM micro-tissues; conditions: first daily 10 uM dose
Protocol: as §1
FIGS. 4G and 4H further illustrate that micro-tissues generated from mutant cells are excellent models of human diseases. Micro-tissues were generated within the dogbone-shaped microwells described herein from three different cell types: wild type MYPBC3^+/+ iPS, heterozygous MYPBC3^+/− iPS, and null MYPBC3^−/− iPS. […] However, upon repeated exposure to isoproterenol, the differences heterozygous and null MYPBC3 tissue responses became less significant (FIG. 4H).

[6] = system: iPS-CM two-dimensional monolayers; experiment: Beating of iPS-CM in unpatterned two-dimensional monolayers/cell clusters, drug response

## [Ca+2] [calcium]
[1]
  twitch force: dramatically increases

## CC(C)NCC(O)c1ccc(O)c(O)c1 (stereo not shown) [isoproterenol]
[2]; 3D micro-tissues, wild type iPS-CM, non-paced, 10 μm isoproterenol
  beat-rate response: highly reproducible; also recorded: robust increase in beat-rate response
[2]; 3D micro-tissues, 10 μm isoproterenol
  intensity of beating, measured via the maximum contraction velocity (inotropic response): exhibit an inotropic response
[2]; 3D-cultured micro-tissues within stencil wells, high doses
  cessation of beating at high doses: no such effects were observed
[2]; wild type MYPBC3+/+ micro-tissues, first daily 10 uM dose
  beating frequency in response to isoproterenol: greatest increase in beating frequency
[3]; null MYPBC3−/− micro-tissues, first daily 10 uM dose
  beating frequency in response to isoproterenol: returned to a lower beating frequency significantly faster
[3]; short-term (30 minutes) and chronic (5 days of daily dosing) exposure, 10 μm isoproterenol, compared with wild type
  beat-rate (chronotropic response): blunted decrease in beat-rate
[4]
  calcium flux response: responded to isoproterenol
[5]
  beating frequency in response to isoproterenol: less than the wild type MYPBC3 tissues but greater than the null MYPBC3 tissues
[6]; 2D cultured iPS-CM monolayers, non-paced, 10 μm isoproterenol
  beat-rate response: erratic/unpredictable responses; also recorded: varies significantly from one test to the next; also recorded: large variance amongst samples
[6]; 2D monolayers, 10 μm isoproterenol
  intensity of beating (inotropic response): did not affect the intensity of beating
[6]; 2D-cultured cells and cell clusters, high doses
  cessation of beating at high doses: stopped beating

## COc1ccc(CCN(C)CCCC(C#N)(c2ccc(OC)c(OC)c2)C(C)C)cc1OC (stereo not shown) [verapamil]
[2]; stencil micro-tissues compared to the same cells in non-patterned 2D monolayers, 30 minutes per dose
  IC50 value (beating): higher IC50 value
